{"source": "patent US20230255903A1", "about": "“URINARY SYMPTOM THERAPEUTIC AGENT” (TAIHO PHARMACEUTICAL CO., LTD., priority 2020, published 2023)", "key": {"[1]": {"test_system": "patients having detrusor underactivity (DU)", "test": "Placebo-controlled double-blind comparative study: bladder voiding efficiency (BVE)", "format": "in vivo, human", "conditions": "for BVE, Value at Week 12, Mean(S.D.) / BVE, Change from Baseline at Week 12, Mean(S.D.): 200 mg orally twice a day for 12 weeks, FAS; for BVE change, Mean Difference = Compound 1-Placebo: Week 12; for Effect on voiding efficiency (in words): 12 weeks", "protocol": "(§1) Patients having detrusor underactivity (DU) and at least one voiding symptom associated with DU, such as abdominal straining to void, slow urinary stream, intermittent stream, residual urine, and reduced voiding efficiency, were used as subjects. Using such subjects, a placebo-controlled double-blind comparative study was performed to examine the effectiveness and safety of Compound 1 (this test was performed using patients also having overactive bladder as subjects). Under double-blind conditions (in which neither the doctor who prescribed the drug nor the patients knew which drug was administered to each patient), 200 mg of Compound 1 or a placebo was orally administered twice a day after a meal for 12 weeks to evaluate the effectiveness and safety of Compound 1.\nTo evaluate the effectiveness, BVE (bladder voiding efficiency) was evaluated. BVE (%) was calculated by the following formula:\nVoided volume/(Voided volume+Residual urine volume)×100.\nThe voided volume refers to the amount of urine per urination. The residual urine volume refers to the amount of urine that resides in the bladder as measured by transabdominal ultrasonography after completion of urination. The difference between the baseline (before administration) and the measurement value after 12 weeks of the administration was evaluated by using a paired t-test, whereas the difference in amount of BVE variation between the Compound 1 group and the placebo group was evaluated by using Student's t-test."}, "[2]": {"test_system": "patients having lower urinary tract disorders", "test": "Placebo-controlled double-blind comparative study: adverse events and adverse drug reactions", "format": "in vivo, human", "protocol": "as §1\nTo study the safety of Compound 1 in patients having lower urinary tract disorders, adverse events (any unfavorable medical event that occurred in patients who participated in this study; whether or not there is a causal relationship with the active ingredient) and adverse drug reactions (adverse events that are determined to “have a reasonable possibility” of a causal relationship with the drug) were measured."}, "[3]": {"conditions": "patients with a residual urine volume of 50 mL or more, N=29"}, "[4]": {"conditions": "patients with a residual urine volume of 100 mL or more, N=19"}, "[5]": {"conditions": "patients with a residual urine volume of less than 50 mL, N=19"}, "[6]": {"conditions": "200 mg orally twice a day for 12 weeks, All Treated Patients, N=52"}}, "note": "Where “and” joins values, the source holds several entries; their conditions need not be identical. Equal entries are not always repeated.", "data": [{"smiles": "CC1=C(CCCCCCCCCCCCCCCO)C(C)(C)CCC1=O", "note": "[Compound 1, 3-(15-hydroxypentadecyl)-2,4,4-trimethyl-2-cyclohexen-1-one]", "values": [{"measurement": "BVE, Value at Week 12, Mean(S.D.)", "setting": "[1]; entire group of patients having lower urinary tract disorders, N=48", "result": "66.79 (27.04) %"}, {"measurement": "BVE, Change from Baseline at Week 12, Mean(S.D.)", "setting": "[1]; entire group of patients, N=48", "result": "10.91% and 10.91 (26.48) %"}, {"measurement": "BVE change, Mean Difference = Compound 1-Placebo", "setting": "[1]; entire group of patients, Student's t-test p=0.178", "result": 8.49, "unit": "%"}, {"measurement": "Effect on voiding efficiency (in words)", "setting": "[1]; patients with a residual urine volume of 50 mL or more or of 100 mL or more", "result": "significantly increased the voiding efficiency"}, {"measurement": "BVE, Change from Baseline at Week 12, Mean(S.D.)", "setting": "[1]; [3]", "result": "18.41% and 18.41 (24.39) %"}, {"measurement": "BVE, Value at Week 12, Mean(S.D.)", "setting": "[1]; [3]", "result": "61.66 (30.45) %"}, {"measurement": "BVE change, Mean Difference = Compound 1-Placebo", "setting": "[1]; patients with a residual urine volume of 50 mL or more, Student's t-test p=0.031", "result": 15.53, "unit": "%"}, {"measurement": "BVE, Change from Baseline at Week 12, Mean(S.D.)", "setting": "[1]; [4]", "result": "23.57% and 23.57 (25.54) %"}, {"measurement": "BVE, Value at Week 12, Mean(S.D.)", "setting": "[1]; [4]", "result": "54.71 (33.78) %"}, {"measurement": "BVE change, Mean Difference = Compound 1-Placebo", "setting": "[1]; patients with a residual urine volume of 100 mL or more, Student's t-test p=0.025", "result": 21.47, "unit": "%"}, {"measurement": "BVE, Change from Baseline at Week 12, Mean(S.D.)", "setting": "[1]; [5]", "result": "−0.55 (25.99) %"}, {"measurement": "BVE, Value at Week 12, Mean(S.D.)", "setting": "[1]; [5]", "result": "74.62 (18.94) %"}, {"measurement": "Effect on voiding efficiency (in words)", "setting": "[1]; patients with a residual urine volume of less than 50 mL", "result": "did not significantly increase the voiding efficiency"}, {"measurement": "BVE change, Mean Difference = Compound 1-Placebo", "setting": "[1]; patients with a residual urine volume of less than 50 mL, Student's t-test p=0.853", "result": "−2.09", "unit": "%"}, {"measurement": "Adverse Drug Reactions, N (patients)", "setting": "[2]; [6]", "result": 0}, {"measurement": "Adverse Drug Reactions, incidence", "setting": "[2]; [6]", "result": 0.0, "unit": "%"}, {"measurement": "Adverse Events, N (patients)", "setting": "[2]; [6]", "result": 24}, {"measurement": "Adverse Events, incidence", "setting": "[2]; [6]", "result": 46.2, "unit": "%"}, {"measurement": "Safety and tolerability (in words)", "setting": "[2]; oral administration of 200 mg twice a day for 12 weeks", "result": "well tolerated"}]}]}
